Laboratory results from US12545640B2, “Substituted 6,7-dihydro-5H-benzo[7]annulene compounds, processes for their preparation and therapeutic uses thereof” (SANOFI, priority 2019, dated 2026).
Structures can show the parent of a compound that is named as a salt.

Target: T1, ERα (Homo sapiens, UniProt P03372)
T1 construct: host or cells: MCF7 cells
T1 sequence (P03372 1-595): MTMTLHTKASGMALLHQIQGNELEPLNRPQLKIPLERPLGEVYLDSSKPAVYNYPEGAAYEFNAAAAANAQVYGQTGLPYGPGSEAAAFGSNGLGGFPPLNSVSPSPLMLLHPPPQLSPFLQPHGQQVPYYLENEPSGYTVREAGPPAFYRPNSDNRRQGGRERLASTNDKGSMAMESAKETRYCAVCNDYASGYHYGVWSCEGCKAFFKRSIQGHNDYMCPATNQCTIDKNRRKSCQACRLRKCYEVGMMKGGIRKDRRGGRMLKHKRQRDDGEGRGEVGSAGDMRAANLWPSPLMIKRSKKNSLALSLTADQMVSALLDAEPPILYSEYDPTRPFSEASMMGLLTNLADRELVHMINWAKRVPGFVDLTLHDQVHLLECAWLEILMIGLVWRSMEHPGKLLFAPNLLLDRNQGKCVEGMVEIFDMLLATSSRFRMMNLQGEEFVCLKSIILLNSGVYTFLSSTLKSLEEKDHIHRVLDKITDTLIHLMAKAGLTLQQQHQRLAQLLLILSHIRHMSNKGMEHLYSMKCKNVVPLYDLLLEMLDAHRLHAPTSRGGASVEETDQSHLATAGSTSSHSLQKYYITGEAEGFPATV
Assay: Estrogen receptor degradation activity: breast cancer cell ERα in cell western assay (MCF7 cells)
Format: cell-based
Conditions: 4 hours, relative to fulvestrant 0.1 μM positive control; for % Degradation At 3 μM: final concentrations ranging from 3-0.000018 μM; for % Degradation At 0.3 μM: final concentrations ranging from 0.3-0.0000018 μM
Procedure: Test: Estrogen Receptor Degradation Activity
Said test involves measuring the in vitro degradation activity of the compounds of the invention.
The measurements of the degradation activities were made using a breast cancer cell ERα in cell western assay as described hereunder.
MCF7 cells (ATCC) were seeded in 384 wells microplate (collagen coated) at a concentration of 10000 cells/30 μL, per well in red phenol free MEM alpha medium (invitrogen) containing 5% charcoal dextran striped FBS. The following day, 9 points serial 1:5 dilution of each compound was added to the cells in 2.5 μL at final concentrations ranging either from 3-0.000018 μM (column «% Degradation at 3 μM in table 2) or from 0.3-0.0000018 μM (column «% Degradation at 0.3 μM in table 2), or 0.1 μM for fulvestrant (using as positive control). At 4 hours post compound addition the cells were fixed by adding 25 μL of formalin (final concentration 5% formalin containing 0.1% triton) for 10 minutes at room temperature and then washed twice with PBS. Then, 50 μL of LI-COR blocking buffer containing 0.1% Triton was added to plate for 30 minutes at room temperature. LI-COR blocking buffer was removed and cells were incubated overnight at cold room with 50 μL anti-ER rabbit monoclonal antibody (Thermo scientific MA1-39540) diluted at 1:1000 in LI-COR blocking buffer containing 0.1% tween-20. Wells which were treated with blocking buffer but no antibody were used as background control. Wells were washed twice with PBS (0.1% tween-20) and incubated at 37° C. for 60 minutes in LI-COR (0.1% tween-20) containing goat anti-rabbit antibody Alexa 488 (1:1000) and Syto-64 a DNA dye ([…]). Cells were then washed 3 times in PBS and scanned in ACUMEN explorer (TTP-Labtech). Integrated intensities in the green fluorescence and red fluorescence were measured to determine the levels of ERα and DNA respectively.

Row | SMILES | % Degradation At 3 μM | % Degradation At 0.3 μM
1 | CC(=O)Nc1ccc2c(c1)CCCC(c1ccc(Cl)cc1Cl)=C2c1ccc(O[C@H]2CCN(CCCF)C2)cc1 [Example 48, (S)—N-(8-(2,4-dichlorophenyl)-9-(4-((1-(3-fluoropropyl)pyrrolidin-3-yl)oxy)phenyl)-6,7-dihydro-5H-benzo[7]annulen-3-yl)acetamide] | 70% | –
2 | FCCCN1CC[C@H](Oc2ccc(C3=C(c4ccc(Cl)cc4Cl)CCCc4cc(-c5cc[nH]n5)ccc43)cc2)C1 [Example 51, (S)-3-(8-(2,4-dichlorophenyl)-9-(4-((1-(3-fluoropropyl)pyrrolidin-3-yl)oxy)phenyl)-6,7-dihydro-5H-benzo[7]annulen-3-yl)-1H-pyrazole] | 81% | –
3 | O=C(O)c1cccc(-c2ccc3c(c2)CCCC(c2ccc(Cl)cc2Cl)=C3c2ccc(O[C@H]3CCN(CCCF)C3)cc2)c1 [Example 55, (S)-3-(8-(2,4-dichlorophenyl)-9-(4-((1-(3-fluoropropyl)pyrrolidin-3-yl)oxy)phenyl)-6,7-dihydro-5H-benzo[7]annulen-3-yl)benzoic acid] | 84% | –
4 | COC(=O)c1ccc(-c2ccc3c(c2)CCCC(c2ccc(Cl)cc2Cl)=C3c2ccc(O[C@H]3CCN(CCCF)C3)cc2)cc1 [Example 56, Methyl (S)-4-(8-(2,4-dichlorophenyl)-9-(4-((1-(3-fluoropropyl)pyrrolidin-3-yl)oxy)phenyl)-6,7-dihydro-5H-benzo[7]annulen-3-yl)benzoate] | 89% | –
5 | COC(=O)c1cccc(-c2ccc3c(c2)CCCC(c2ccc(Cl)cc2Cl)=C3c2ccc(O[C@H]3CCN(CCCF)C3)cc2)c1 [Example 57, Methyl (S)-3-(8-(2,4-dichlorophenyl)-9-(4-((1-(3-fluoropropyl)pyrrolidin-3-yl)oxy)phenyl)-6,7-dihydro-5H-benzo[7]annulen-3-yl)benzoate] | 87% | –
6 | O=C1CCCN1c1ccc2c(c1)CCCC(c1ccc(Cl)cc1Cl)=C2c1ccc(O[C@H]2CCN(CCCF)C2)cc1 [Example 58, (S)-1-(8-(2,4-dichlorophenyl)-9-(4-((1-(3-fluoropropyl)pyrrolidin-3-yl)oxy)phenyl)-6,7-dihydro-5H-benzo[7]annulen-3-yl)pyrrolidin-2-one] | 77% | –
7 | O=C(NNC(=S)n1ccnc1)c1ccc2c(c1)CCCC(c1ccc(Cl)cc1Cl)=C2c1ccc(O[C@H]2CCN(CCCF)C2)cc1 [Example 59, (S)-8-(2,4-dichlorophenyl)-9-(4-((1-(3-fluoropropyl)pyrrolidin-3-yl)oxy)phenyl)-N′-(1H-imidazole-1-carbonothioyl)-6,7-dihydro-5H-benzo[7]annulene-3-carbohydrazide] | 91% | –
8 | O=C(Nc1ccc2c(c1)CCCC(c1ccc(Cl)cc1Cl)=C2c1ccc(O[C@H]2CCN(CCCF)C2)cc1)C1CC1 [Example 60, (S)—N-(8-(2,4-dichlorophenyl)-9-(4-((1-(3-fluoropropyl)pyrrolidin-3-yl)oxy)phenyl)-6,7-dihydro-5H-benzo[7]annulen-3-yl)cyclopropanecarboxamide] | 74% | –
9 | Nc1nc(-c2ccc3c(c2)CCCC(c2ccc(Cl)cc2Cl)=C3c2ccc(O[C@H]3CCN(CCCF)C3)cc2)cs1 [Example 61, (S)-4-(8-(2,4-dichlorophenyl)-9-(4-((1-(3-fluoropropyl)pyrrolidin-3-yl)oxy)phenyl)-6,7-dihydro-5H-benzo[7]annulen-3-yl)thiazol-2-amine] | 76% | –
10 | CC(C)(C)C(=O)Nc1ccc2c(c1)CCCC(c1ccc(Cl)cc1Cl)=C2c1ccc(O[C@H]2CCN(CCCF)C2)cc1 [Example 62, (S)—N-(8-(2,4-dichlorophenyl)-9-(4-((1-(3-fluoropropyl)pyrrolidin-3-yl)oxy)phenyl)-6,7-dihydro-5H-benzo[7]annulen-3-yl)pivalamide] | – | 68%
11 | OC(c1ccc2c(c1)CCCC(c1cccc(F)c1Cl)=C2c1ccc(O[C@H]2CCN(CCCF)C2)cc1)C(F)(F)F (stereo partly drawn) [Example 65, 1-(8-(2-chloro-3-fluorophenyl)-9-(4-(((S)-1-(3-fluoropropyl)pyrrolidin-3-yl)oxy)phenyl)-6,7-dihydro-5H-benzo[7]annulen-3-yl)-2,2,2-trifluoroethan-1-ol] | – | 90%
12 | O=C(Nc1ccc2c(c1)CCCC(c1ccc(Cl)cc1Cl)=C2c1ccc(O[C@H]2CCN(CCCF)C2)cc1)C1(F)CC1 [Example 66, (S)—N-(8-(2,4-dichlorophenyl)-9-(4-((1-(3-fluoropropyl)pyrrolidin-3-yl)oxy)phenyl)-6,7-dihydro-5H-benzo[7]annulen-3-yl)-1-fluorocyclopropane-1-carboxamide] | – | 74%
13 | CC1(C(=O)Nc2ccc3c(c2)CCCC(c2ccc(Cl)cc2Cl)=C3c2ccc(O[C@H]3CCN(CCCF)C3)cc2)CC1 [Example 67, (S)—N-(8-(2,4-dichlorophenyl)-9-(4-((1-(3-fluoropropyl)pyrrolidin-3-yl)oxy)phenyl)-6,7-dihydro-5H-benzo[7]annulen-3-yl)-1-methylcyclopropane-1-carboxamide] | – | 79%
14 | C/N=c1\scc(-c2ccc3c(c2)CCCC(c2ccc(Cl)cc2Cl)=C3c2ccc(O[C@H]3CCN(CCCF)C3)cc2)n1C [Example 69, (S,Z)-4-(8-(2,4-dichlorophenyl)-9-(4-((1-(3-fluoropropyl)pyrrolidin-3-yl)oxy)phenyl)-6,7-dihydro-5H-benzo[7]annulen-3-yl)-N,3-dimethylthiazol-2(3H)-imine hydrochloride] | – | 69%
15 | CC(C)(C)OC(=O)Nc1ccc2c(c1)CCCC(c1ccccc1)=C2c1ccc(O[C@H]2CCN(CCCF)C2)cc1 [Example 71, tert-butyl (S)-(9-(4-((1-(3-fluoropropyl)pyrrolidin-3-yl)oxy)phenyl)-8-phenyl-6,7-dihydro-5H-benzo[7]annulen-3-yl)carbamate] | – | 91%
16 | O=C(O)c1ccc(-c2ccc3c(c2)CCCC(c2ccc(Cl)cc2Cl)=C3c2ccc(O[C@H]3CCN(CCCF)C3)cc2)cc1 [Example 72, (S)-4-(8-(2,4-dichlorophenyl)-9-(4-((1-(3-fluoropropyl)pyrrolidin-3-yl)oxy)phenyl)-6,7-dihydro-5H-benzo[7]annulen-3-yl)benzoic acid] | – | 74%
17 | Nc1cc(-c2ccc3c(c2)CCCC(c2ccc(Cl)cc2Cl)=C3c2ccc(O[C@H]3CCN(CCCF)C3)cc2)n[nH]1 [Example 73, (S)-3-(8-(2,4-dichlorophenyl)-9-(4-((1-(3-fluoropropyl)pyrrolidin-3-yl)oxy)phenyl)-6,7-dihydro-5H-benzo[7]annulen-3-yl)-1H-pyrazol-5-amine] | – | 89%
18 | O=C(c1ccc2c(c1)CCCC(c1ccc(Cl)cc1Cl)=C2c1ccc(O[C@H]2CCN(CCCF)C2)cc1)N1CC(O)C1 [Example 74, (S)-(8-(2,4-dichlorophenyl)-9-(4-((1-(3-fluoropropyl)pyrrolidin-3-yl)oxy)phenyl)-6,7-dihydro-5H-benzo[7]annulen-3-yl)(3-hydroxyazetidin-1-yl)methanone] | – | 59%
19 | O=C(NC1COC1)c1ccc2c(c1)CCCC(c1ccc(Cl)cc1Cl)=C2c1ccc(O[C@H]2CCN(CCCF)C2)cc1 [Example 75, (S)-8-(2,4-dichlorophenyl)-9-(4-((1-(3-fluoropropyl)pyrrolidin-3-yl)oxy)phenyl)-N-(oxetan-3-yl)-6,7-dihydro-5H-benzo[7]annulene-3-carboxamide] | – | 71%
20 | CCOC(=O)C(=O)Nc1ccc2c(c1)CCCC(c1ccc(Cl)cc1Cl)=C2c1ccc(O[C@H]2CCN(CCCF)C2)cc1 [Example 76, ethyl (S)-2-((8-(2,4-dichlorophenyl)-9-(4-((1-(3-fluoropropyl)pyrrolidin-3-yl)oxy)phenyl)-6,7-dihydro-5H-benzo[7]annulen-3-yl)amino)-2-oxoacetate] | – | 75%
21 | NC(=O)C(=O)Nc1ccc2c(c1)CCCC(c1ccc(Cl)cc1Cl)=C2c1ccc(O[C@H]2CCN(CCCF)C2)cc1 [Example 77, (S)—N1-(8-(2,4-dichlorophenyl)-9-(4-((1-(3-fluoropropyl)pyrrolidin-3-yl)oxy)phenyl)-6,7-dihydro-5H-benzo[7]annulen-3-yl)oxalamide] | – | 55%
